Experimental data from PMC9096754 (Scientific Reports, 2022).
Where two headings read alike, the source gives them in different places.

Assays:
[1] = molecular target: T1, Human recombinant 15-ALOX (Homo sapiens, UniProt P16050); assay: Arachidonate 15-lipoxygenase (15-ALOX) enzymatic assay (Eurofins Cerep 199017); type: biochemical
T1 construct: purchased Eurofins (Cerep), fee-for-service 199017; host or cells: E. coli
T1 sequence (P16050 1-662): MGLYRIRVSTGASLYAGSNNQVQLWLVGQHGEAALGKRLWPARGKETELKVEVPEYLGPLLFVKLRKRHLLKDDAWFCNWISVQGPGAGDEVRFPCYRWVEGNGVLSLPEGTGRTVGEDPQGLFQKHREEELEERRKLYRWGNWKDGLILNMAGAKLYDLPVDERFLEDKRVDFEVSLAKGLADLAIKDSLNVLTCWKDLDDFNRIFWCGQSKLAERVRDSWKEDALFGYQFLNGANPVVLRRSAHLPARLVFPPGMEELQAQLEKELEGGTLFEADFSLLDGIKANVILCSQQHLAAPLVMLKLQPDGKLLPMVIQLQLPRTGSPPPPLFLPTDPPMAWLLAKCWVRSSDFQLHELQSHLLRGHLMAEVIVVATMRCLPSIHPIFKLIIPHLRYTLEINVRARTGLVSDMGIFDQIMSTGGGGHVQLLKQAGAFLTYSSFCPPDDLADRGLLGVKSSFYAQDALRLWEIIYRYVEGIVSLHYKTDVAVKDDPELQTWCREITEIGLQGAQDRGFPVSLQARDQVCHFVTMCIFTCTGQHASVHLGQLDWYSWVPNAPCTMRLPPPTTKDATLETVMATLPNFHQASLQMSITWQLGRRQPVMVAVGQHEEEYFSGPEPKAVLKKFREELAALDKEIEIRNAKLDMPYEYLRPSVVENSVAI

[2] = molecular target: T2, human ADORA3 (Homo sapiens, UniProt P0DMS8); assay: Adenosine A3 receptor (ADORA3) functional cAMP HTRF assay in CHO cells (Eurofins Cerep G107); type: cell-based; details: 8 concentrations, top 30 μM, active if IC50 lower than 30 μM
T2 construct: host or cells: CHO
T2 sequence (P0DMS8 1-318): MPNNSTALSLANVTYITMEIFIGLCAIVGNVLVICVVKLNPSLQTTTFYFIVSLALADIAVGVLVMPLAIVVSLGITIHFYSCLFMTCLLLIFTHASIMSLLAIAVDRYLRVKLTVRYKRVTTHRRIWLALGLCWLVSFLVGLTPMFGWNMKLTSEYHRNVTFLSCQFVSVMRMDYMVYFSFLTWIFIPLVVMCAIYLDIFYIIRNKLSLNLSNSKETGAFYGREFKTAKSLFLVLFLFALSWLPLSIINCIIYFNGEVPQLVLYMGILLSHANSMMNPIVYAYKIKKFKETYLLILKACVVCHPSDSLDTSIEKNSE
Method: In vitro characterization was performed on a fee-for-service basis at Eurofins (www.eurofins.com) if the assay was commercially available. […]
tested at 8 concentrations (100 µM a s the highest concentration and dilution factor in a log-scale) in triplicate for dose-response curve and IC50 determination. (Eurofins Cerep assay ID: […]
(§1) formation of 5’AMP from cAMP using human recombinant enzyme e xpressed in Sf9 cells.
(§2) The test compound was added to a buffer containing 40 mM Tris/HCl (pH 7. 4), 8 mM MgCl2, and 0. 2 µM [3H]cAMP + cAMP. Thereafter, enzyme (about 0. 8 U) wa s added and the mixture incubated for 20 minutes at 25 °C. SPA beads were added and the mixture was maintained at 25 °C for 30 minutes under shaking. [3H]5’AMP was quantified via scintillation counting. The […]
used as standard inhibitory reference compound. […]
Functional activity of ADORA3 was evaluated in CHO cells transfected with human […]
(100 nM IB-MECA) in a first assay, and in a second one with […] (10 nM IB -ME CA) for 20 minutes at 37 °C, and formation of cAMP was determined by homogeneous time resolved fluorescence (HTRF) at lex=337 nm and lem=620 and 665 nm using a microplate reader (Envison, Perkin Elmer). The cAMP concentration was determined by dividing the […]
signal measured at 665 nm by that measured at 620 nm (ratio). […]

[3] = molecular target: T3, human AA2AR (Homo sapiens, UniProt P29274); assay: Adenosine A2A receptor (AA2AR) calcium flux assay in RBL-2H3 cells (Eurofins Cerep 86-0011P-2409AN); type: cell-based; details: top 30 μM, active if IC50 lower than 30 μM
T3 construct: host or cells: RBL-2H3

[4] = molecular target: T4, Epidermal growth factor receptor (EGFR) (Homo sapiens, UniProt P00533); assay: Epidermal Growth Factor Receptor (EGFR) enzymatic radiometric assay (Eurofins Cerep 14-531KP); type: biochemical
T4 construct: purchased Eurofins (Cerep), fee-for-service 14-531KP

[5] = molecular target: T5, Mouse recombinant iNOS (Mus musculus, UniProt P29477); assay: Inducible NOS (iNOS) enzymatic assay (Eurofins Cerep 3185); type: biochemical
T5 construct: purchased Eurofins (Cerep), fee-for-service 3185; host or cells: Escherichia coli
Method: In vitro characterization was performed on a fee-for-service basis at Eurofins (www.eurofins.com) if the assay was commercially available. […] DTT) to remove unbound ligand and to reduce nonspecific binding. […] The analysis was carried on in polypropylene 384-well plates incubated at 25 °C with shaking for 1 h in a final volume of 20 μL. […] The kinase concentration in the eluates was measured by qPCR. […] The mixture was incubated for 90 minutes at 37 °C, followed by the addition of Griess reagent. The binding was determined by photometry at 545 nm. […] was used as reference compound. […] A primary screening in duplicated was carried out (30 μM) to determine the target activity. […] The reaction was initiated by the addition of the Mg/ATP mixture. Afte r incubation for 30 minutes at 25 °C, the reaction was terminated by the addition of a solution containing EDTA and biotinylated phosphatidylinositol - 3,4,5-trisphosphate. Detection buffer containing europium -labelled anti - GST monoclonal antibody, GST -tagged GRP1 PH domain and streptavidin -allophycocyanin was added. Following, the plate was read in time-resolved fluorescence mode and the homogeneous time -resolved fluorescence (HTRF) signal was determined according to the formula HTRF = 10000 x (Em665 nm/Em6 20 nm). PI-103 was used as reference compound. […] The binding was determined by Spectrofluorimetric quantitation of rhodamine 123 (Excitation: 485 nm, Emission: 535 nm). 2 -TEDC was used as a reference compound. A primary screening in duplicated was carried out (30 μM) to determine the target S4

[6] = molecular target: T6, PI3 Kinase (p110b/p85a) (Homo sapiens, UniProt P42338); assay: PI3 Kinase (p110b/p85a) enzymatic HTRF assay (Eurofins Cerep 14-603KP); type: biochemical; details: for remaining activity at 30 µM: % kinase activity remaining
T6 construct: purchased Eurofins (Cerep), fee-for-service 14-603KP
Method: Additional details on the conduct of in vitro assays are included in Supplementary Information S1. […]
PI3 Kinase (p110b/p85a). The enzyme was incubated in assay buffer containing 10 µM
phosphatidylinositol -4, 5-bispho sphate and Mg/A TP (200 µM). The reaction was initiated by
the addition of the Mg/ATP mixture. Afte r incubation for 30 minutes at 25 °C, the reaction was
terminated by the addition of a solution containing EDTA and biotinylated
phosphatidylinositol - 3,4,5-trisphosphate. Detection buffer containing europium -labelled anti -
GST monoclonal antibody, GST -tagged GRP1 PH domain and streptavidin -allophycocyanin
was added. Following, the plate was read in time-resolved fluorescence mode and the
homogeneous time -resolved fluorescence (HTRF) signal was determined according to the
formula HTRF = 10000 x (Em665 nm/Em6 20 nm). PI-103 was used as reference compound.
A primary screening in duplicated was carried out (30 µM) to determine the target activity. The
result was e xpres sed as a percentage of the positiv e control (i.e. % kinase activity remaining),
and the mean of the replicates was calculated. (Eurofins Cerep assay ID: 14 -603KP) […]
A primary screening in duplicated was carried out (30 µM) to determine the target

[7] = molecular target: T7, human PDE10A2 (Homo sapiens, UniProt Q9Y233); assay: Phosphodiesterase 10A2 (PDE10A2) enzymatic assay (Eurofins Cerep 4080); type: biochemical
T7 construct: purchased Eurofins (Cerep), fee-for-service 4080; host or cells: Sf9
Method: In vitro characterization was performed on a fee-for-service basis at Eurofins (www.eurofins.com) if the assay was commercially available.
Additional details on the conduct of in vitro assays are included in Supplementary Information S1.
The IC50 value and the standard error of the mean (SEM) were determined by a non-linear, least squares regression analysis using GraphPad Prism Version 9.0.2 for Macintosh (GraphPad Software, San Diego, California USA, https://www.graphpad.com). The dose–response curve was plotted using RStudio Team (2020), v. 1.3.1073 (RStudio, PBC, Boston, MA, http://www.rstudio.com/). […]
as §1, §2
used as standard inhibitory reference compound. A primary screening in duplicated was carried out (30 µM) to determine the target activity.
(100 µM highest concentration and dilution factor in a log-scale) in triplicate for dose-respons e

[8] = molecular target: PKN2 (human) (Homo sapiens, UniProt Q16513); assay: biochemical
[9] = test system: PDE10A; parameters: method as in printed at the sentence; details: PDE10A inhibitor, papaverine analog; ref not given; cited from earlier work
[10] = tested at 30 μM, active if IC50 lower than 30 μM

PKN2 (human), sequence (Q16513 whole entry): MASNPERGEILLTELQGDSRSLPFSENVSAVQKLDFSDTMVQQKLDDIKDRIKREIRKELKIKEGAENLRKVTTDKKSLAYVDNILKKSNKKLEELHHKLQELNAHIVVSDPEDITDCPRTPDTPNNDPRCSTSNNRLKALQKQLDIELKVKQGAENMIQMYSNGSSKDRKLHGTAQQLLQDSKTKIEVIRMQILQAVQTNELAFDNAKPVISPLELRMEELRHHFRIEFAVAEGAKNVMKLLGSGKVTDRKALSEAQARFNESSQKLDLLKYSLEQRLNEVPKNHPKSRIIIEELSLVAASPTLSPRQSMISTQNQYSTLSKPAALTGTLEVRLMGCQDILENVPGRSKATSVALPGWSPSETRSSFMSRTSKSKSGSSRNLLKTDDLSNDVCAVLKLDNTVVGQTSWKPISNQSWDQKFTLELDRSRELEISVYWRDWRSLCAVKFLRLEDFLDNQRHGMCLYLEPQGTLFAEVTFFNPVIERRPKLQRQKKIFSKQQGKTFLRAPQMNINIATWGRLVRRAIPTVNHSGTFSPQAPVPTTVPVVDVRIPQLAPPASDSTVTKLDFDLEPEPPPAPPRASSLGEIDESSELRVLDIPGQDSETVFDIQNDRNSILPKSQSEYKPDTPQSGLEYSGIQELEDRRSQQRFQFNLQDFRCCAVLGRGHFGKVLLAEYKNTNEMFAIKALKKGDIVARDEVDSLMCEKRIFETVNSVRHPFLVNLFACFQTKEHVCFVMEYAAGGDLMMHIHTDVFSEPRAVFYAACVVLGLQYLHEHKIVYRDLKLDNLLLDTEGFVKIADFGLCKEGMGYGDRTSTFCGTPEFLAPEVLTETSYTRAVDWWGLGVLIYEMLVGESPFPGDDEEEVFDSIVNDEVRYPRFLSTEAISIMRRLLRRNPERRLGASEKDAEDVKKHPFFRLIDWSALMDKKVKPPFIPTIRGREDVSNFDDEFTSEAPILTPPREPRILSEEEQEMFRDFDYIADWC
T7 sequence (Q9Y233 267-1055): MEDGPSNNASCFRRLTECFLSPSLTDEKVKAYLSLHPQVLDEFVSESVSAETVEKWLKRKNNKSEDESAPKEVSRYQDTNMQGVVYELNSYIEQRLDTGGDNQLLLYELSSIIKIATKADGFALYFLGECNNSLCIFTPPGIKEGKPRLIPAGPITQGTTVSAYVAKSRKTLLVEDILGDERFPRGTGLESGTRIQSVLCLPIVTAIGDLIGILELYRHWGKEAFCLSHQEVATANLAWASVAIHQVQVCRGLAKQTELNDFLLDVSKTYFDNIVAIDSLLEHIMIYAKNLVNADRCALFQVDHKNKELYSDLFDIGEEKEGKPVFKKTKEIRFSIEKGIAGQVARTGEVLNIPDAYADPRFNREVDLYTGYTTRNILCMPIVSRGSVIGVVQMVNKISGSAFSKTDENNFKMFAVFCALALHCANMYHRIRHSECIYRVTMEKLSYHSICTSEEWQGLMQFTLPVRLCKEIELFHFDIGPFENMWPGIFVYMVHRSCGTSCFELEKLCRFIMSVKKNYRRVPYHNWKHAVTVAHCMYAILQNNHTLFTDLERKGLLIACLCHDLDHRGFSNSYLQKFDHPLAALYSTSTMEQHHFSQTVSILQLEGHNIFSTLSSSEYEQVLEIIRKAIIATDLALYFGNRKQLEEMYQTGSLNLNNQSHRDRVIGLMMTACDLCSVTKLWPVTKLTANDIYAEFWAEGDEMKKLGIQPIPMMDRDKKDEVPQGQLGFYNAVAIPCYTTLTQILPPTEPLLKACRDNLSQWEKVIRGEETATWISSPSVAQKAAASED
T6 sequence (P42338 whole entry): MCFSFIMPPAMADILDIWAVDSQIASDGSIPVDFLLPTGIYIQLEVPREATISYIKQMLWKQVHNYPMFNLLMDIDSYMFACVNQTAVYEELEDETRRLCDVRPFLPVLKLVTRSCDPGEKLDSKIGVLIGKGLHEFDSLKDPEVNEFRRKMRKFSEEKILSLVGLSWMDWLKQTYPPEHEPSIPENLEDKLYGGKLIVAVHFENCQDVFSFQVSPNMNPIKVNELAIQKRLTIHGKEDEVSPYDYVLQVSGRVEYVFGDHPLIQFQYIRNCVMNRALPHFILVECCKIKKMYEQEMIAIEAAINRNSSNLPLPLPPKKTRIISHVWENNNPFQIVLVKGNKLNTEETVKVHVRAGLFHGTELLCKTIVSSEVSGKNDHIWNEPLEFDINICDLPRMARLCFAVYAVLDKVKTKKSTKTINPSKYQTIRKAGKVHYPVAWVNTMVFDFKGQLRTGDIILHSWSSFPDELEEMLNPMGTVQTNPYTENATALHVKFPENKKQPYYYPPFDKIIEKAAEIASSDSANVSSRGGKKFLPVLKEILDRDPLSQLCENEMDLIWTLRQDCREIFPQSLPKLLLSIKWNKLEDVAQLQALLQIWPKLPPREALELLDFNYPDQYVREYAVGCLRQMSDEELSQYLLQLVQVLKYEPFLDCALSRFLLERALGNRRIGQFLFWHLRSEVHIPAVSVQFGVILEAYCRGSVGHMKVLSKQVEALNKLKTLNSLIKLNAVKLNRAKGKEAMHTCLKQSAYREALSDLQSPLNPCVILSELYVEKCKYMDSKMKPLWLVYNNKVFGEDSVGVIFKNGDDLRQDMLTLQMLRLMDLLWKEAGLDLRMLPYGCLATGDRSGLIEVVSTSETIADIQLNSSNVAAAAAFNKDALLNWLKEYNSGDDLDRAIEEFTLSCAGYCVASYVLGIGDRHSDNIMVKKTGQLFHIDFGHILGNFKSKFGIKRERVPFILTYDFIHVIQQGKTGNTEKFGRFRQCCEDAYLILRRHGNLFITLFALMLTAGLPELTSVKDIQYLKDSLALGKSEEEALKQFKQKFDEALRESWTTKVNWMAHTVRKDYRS
T6 sequence (P27986 whole entry partner): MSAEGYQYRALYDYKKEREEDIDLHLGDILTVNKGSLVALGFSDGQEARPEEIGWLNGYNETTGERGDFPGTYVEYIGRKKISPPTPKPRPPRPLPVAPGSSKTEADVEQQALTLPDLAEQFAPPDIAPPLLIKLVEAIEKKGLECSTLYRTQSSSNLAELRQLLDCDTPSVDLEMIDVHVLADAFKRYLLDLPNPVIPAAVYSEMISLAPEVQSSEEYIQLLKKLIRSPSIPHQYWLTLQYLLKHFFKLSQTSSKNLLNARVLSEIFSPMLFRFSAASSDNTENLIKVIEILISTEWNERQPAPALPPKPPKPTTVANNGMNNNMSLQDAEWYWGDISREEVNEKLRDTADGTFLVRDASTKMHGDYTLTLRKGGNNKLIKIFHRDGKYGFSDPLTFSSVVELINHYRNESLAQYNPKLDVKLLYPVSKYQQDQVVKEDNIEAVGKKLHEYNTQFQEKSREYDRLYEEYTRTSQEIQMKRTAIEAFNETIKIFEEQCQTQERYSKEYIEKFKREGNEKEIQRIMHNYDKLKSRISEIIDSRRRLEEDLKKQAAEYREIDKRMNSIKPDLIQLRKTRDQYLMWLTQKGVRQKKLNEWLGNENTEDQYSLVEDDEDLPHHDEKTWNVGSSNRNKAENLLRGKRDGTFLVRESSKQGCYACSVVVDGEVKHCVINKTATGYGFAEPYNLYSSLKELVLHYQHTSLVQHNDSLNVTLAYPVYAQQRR
T4 sequence (P00533 25-1210): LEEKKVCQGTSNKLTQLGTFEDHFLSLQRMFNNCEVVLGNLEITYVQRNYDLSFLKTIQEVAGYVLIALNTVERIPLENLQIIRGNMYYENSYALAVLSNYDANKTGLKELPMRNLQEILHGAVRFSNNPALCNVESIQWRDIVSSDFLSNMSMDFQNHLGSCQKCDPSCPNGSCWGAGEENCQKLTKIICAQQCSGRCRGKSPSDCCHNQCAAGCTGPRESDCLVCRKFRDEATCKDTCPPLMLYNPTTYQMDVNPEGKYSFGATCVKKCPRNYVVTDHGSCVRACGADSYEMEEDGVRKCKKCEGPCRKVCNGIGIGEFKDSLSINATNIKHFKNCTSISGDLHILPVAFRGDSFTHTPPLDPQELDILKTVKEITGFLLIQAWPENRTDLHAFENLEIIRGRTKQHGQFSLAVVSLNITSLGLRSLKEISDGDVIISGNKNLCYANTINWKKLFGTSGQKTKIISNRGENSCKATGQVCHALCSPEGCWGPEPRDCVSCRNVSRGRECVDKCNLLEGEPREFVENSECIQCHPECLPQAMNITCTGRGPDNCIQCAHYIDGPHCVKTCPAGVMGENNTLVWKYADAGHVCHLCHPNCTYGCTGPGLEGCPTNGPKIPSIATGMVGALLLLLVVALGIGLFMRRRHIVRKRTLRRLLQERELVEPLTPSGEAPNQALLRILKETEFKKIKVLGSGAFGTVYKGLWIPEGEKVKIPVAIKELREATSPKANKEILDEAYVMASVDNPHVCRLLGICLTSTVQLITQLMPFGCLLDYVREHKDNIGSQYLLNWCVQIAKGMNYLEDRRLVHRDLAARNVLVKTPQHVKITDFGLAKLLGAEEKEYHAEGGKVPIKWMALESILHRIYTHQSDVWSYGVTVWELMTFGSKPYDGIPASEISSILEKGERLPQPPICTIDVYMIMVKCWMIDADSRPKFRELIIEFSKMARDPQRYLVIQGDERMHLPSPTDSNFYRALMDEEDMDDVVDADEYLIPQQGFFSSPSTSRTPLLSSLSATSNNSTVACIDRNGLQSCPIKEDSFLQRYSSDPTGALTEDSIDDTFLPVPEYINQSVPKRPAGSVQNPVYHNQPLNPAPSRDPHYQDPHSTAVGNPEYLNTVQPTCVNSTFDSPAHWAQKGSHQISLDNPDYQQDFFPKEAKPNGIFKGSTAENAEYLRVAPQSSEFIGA

For C[C@@H]1CCN(C(=O)CC#N)C[C@@H]1N(C)c1ncnc2[nH]ccc12 [Tofacitinib], the “IC50 (μM), 15-ALOX” value ([1]; 30 μM screen, follow-up 8 concentrations top 100 μM, triplicate, active if IC50 lower than 30 μM) was “Inactive”, the inhibition at 30 µM ([1]; mean of n=2, read-out: % inhibition (mean) activity, 15-LOX-1) was 27% and the inhibition at 30 µM ([1]; replicate 1, read-out: % inhibition of control activity (1st), 15-LOX-1) was 19.3%. For the same compound, the inhibition at 30 µM ([1]; replicate 2, read-out: % inhibition of control activity (2nd), 15-LOX-1) was 34%, the “IC50 (μM), ADORA3, antagonistic and agonistic effect” value [2] was “Inactive” and the “IC50 (μM), AA2AR, agonistic effect” value ([3]; agonistic effect (footnote c)) was “Inactive”.

With CCS(=O)(=O)N1CC(CC#N)(n2cc(-c3ncnc4[nH]ccc34)cn2)C1 [Baricitinib] the inhibition at 30 µM ([4]; 30 µM, mean of n=2) was 21%, the “IC50 (μM), EGFR” value [4, 10] was “Inactive” and the inhibition at 30 µM ([5]; mean of n=2, read-out: % inhibition (mean) activity, iNOS) was 5%. The inhibition at 30 µM ([5]; replicate 1, read-out: % inhibition of control activity (1st), iNOS) was 6%, the inhibition at 30 µM ([5]; replicate 2, read-out: % inhibition of control activity (2nd), iNOS) was 4% and the “IC50 (μM), iNOS” value [5, 10] was “Inactive”. The inhibition at 30 µM ([6]; 30 µM, mean of n=2, read-out: % inhibition (mean) activity, PI3Kbeta (p110b/p85a)) was 4%, the remaining activity at 30 µM ([6]; 30 µM, replicate 1, read-out: % inhibition of control activity (1st), measured as % of positive control activity, PI3Kbeta (p110b/p85a)) was 92% and the remaining activity at 30 µM ([6]; 30 µM, replicate 2, read-out: % inhibition of control activity (2nd), measured as % of positive control activity, PI3Kbeta (p110b/p85a)) was 99%. For the same compound, the “IC50 (μM), PI3 Kinase (p110b/p85a)” value [6, 10] was “Inactive”, the inhibition at 30 µM ([7]; mean of n=2, read-out: % inhibition (mean) activity, PDE10A2) was 44.8% and the inhibition at 30 µM ([7]; replicate 1, read-out: % inhibition of control activity (1st), PDE10A2) was 45.5%. The inhibition at 30 µM ([7]; replicate 2, read-out: % inhibition of control activity (2nd), PDE10A2) was 44%, the IC50 ([7]; dose–response, 8 concentrations, top 100 μM, triplicate, mean ± SEM) was 28 ± 2 µM and the Ki ([7]; estimated from experimental IC50, Cheng and Prusoff) was 6.1 µM. For the same compound, the “IC50 (μM), AA2AR, antagonistic effect” value ([3]; antagonistic effect) was “Inactive”, the inhibition at 30 µM ([8]; read-out: % inhibition (mean) activity, PRK2) was 98% and the remaining activity at 30 µM ([8]; read-out: % inhibition of control activity (1st), measured as % of positive control activity, PRK2) was 1%. It also gave a remaining activity at 30 µM ([8]; read-out: % inhibition of control activity (2nd), measured as % of positive control activity, PRK2) of 2%.

For COc1cc2ncnc(N3CC[C@@H](Oc4cnc5ccccc5n4)C3)c2cc1OC [PQ-10], the IC50 [9] is given as 6 µM.
